# From patent publication US20050287203A1, “Formulation comprising testosteron undecanoate and castor oil” (priority 2002, published 2005)
# Assay: concentration of TU attainable in castor oil solution
# Assay type: physicochemical
# Details: liquid carrier castor oil
# Method: The choice of castor oil as the liquid carrier, in conjunction with the choice of testosterone undecanoate as the androgen, makes for a solution which can comprise about 200-250 mg of TU per ml. This amounts to approximately […] of testosterone per ml. This is a novel achievement for any orally administerable solution of testosterone in any form. The invention, in one aspect, therefore includes a pharmaceutical formulation in the form of a capsule for oral administration comprising testosterone undecanoate as the active ingredient dissolved in a pharmaceutically acceptable liquid carrier in a concentration of 200-250 mg/ml.
smiles,measurement,value
CCCCCCCCCCC(=O)O[C@H]1CC[C@H]2[C@@H]3CCC4=CC(=O)CC[C@]4(C)[C@H]3CC[C@]12C [testosterone undecanoate],amount of TU the solution in castor oil can comprise,200-250 mg of TU per ml
